Measurements from ChEMBL document CHEMBL3045107, “A facile green synthesis and in vitro antimicrobial activity 4H-pyrimido[2,1-b][1,3]benzothiazole derivatives using aluminum trichloride under solvent free conditions” (Med Chem Res, 2012).
Converted amounts (≈) assume the structure as drawn. The source made the active and inactive calls. No cut-off for these calls is given here.

What was measured:
[1] = Cytotoxicity against Homo sapiens (human) L123 cells after 48 hr by MTT assay; assay type: cell-based; set-up: unit not given here
[2] = system: Aspergillus fumigatus; assay: Antifungal activity against Aspergillus fumigatus after 72 hr by broth microdilution method; assay type: functional
[3] = system: Aspergillus niger; assay: Antifungal activity against Aspergillus niger after 72 hr by broth microdilution method; assay type: functional
[4] = system: Aspergillus flavus; assay: Antifungal activity against Aspergillus flavus at 0.78 to 50 ug/ml after 72 hr by broth microdilution method; assay type: functional
[5] = system: Aspergillus fumigatus; assay: Antifungal activity against Aspergillus fumigatus at 0.78 to 50 ug/ml after 72 hr by broth microdilution method; assay type: functional
[6] = system: Aspergillus niger; assay: Antifungal activity against Aspergillus niger at 0.78 to 50 ug/ml after 72 hr by broth microdilution method; assay type: functional
[7] = system: Providencia rettgeri; assay: Antibacterial activity against Providencia rettgeri isolated from infected fish after 24 hr by broth microdilution method; assay type: functional
[8] = system: Bacillus cereus; assay: Antibacterial activity against Bacillus cereus MTCC 7350 after 24 hr by broth microdilution method; assay type: functional; details: MTCC 7350, 24 h
[9] = system: Escherichia coli; assay: Antibacterial activity against Escherichia coli ATCC 35218 after 24 hr by broth microdilution method; assay type: functional; details: ATCC 35218, 24 h
[10] = system: Salmonella typhi; assay: Antibacterial activity against Salmonella enterica subsp. enterica serovar Typhi ATCC 23564 after 24 hr by broth microdilution method; assay type: functional; details: ATCC 23564, 24 h
[11] = system: Pseudomonas aeruginosa; assay: Antibacterial activity against Pseudomonas aeruginosa ATCC 15499 after 24 hr by broth microdilution method; assay type: functional; details: ATCC 15499, 24 h
[12] = system: Staphylococcus aureus; assay: Antibacterial activity against Staphylococcus aureus ATCC 11632 after 24 hr by broth microdilution method; assay type: functional; details: ATCC 11632, 24 h
[13] = system: Providencia rettgeri; assay: Antibacterial activity against Providencia rettgeri isolated from infected fish at 0.78 to 50 ug/ml after 24 hr by broth microdilution method; assay type: functional, organism-based
[14] = system: Escherichia coli; assay: Antibacterial activity against Escherichia coli ATCC 35218 at 0.78 to 50 ug/ml after 24 hr by broth microdilution method; assay type: functional, organism-based
[15] = system: Staphylococcus aureus; assay: Antibacterial activity against Staphylococcus aureus ATCC 11632 at 0.78 to 50 ug/ml after 24 hr by broth microdilution method; assay type: functional, organism-based
[16] = system: Aspergillus flavus; assay: Antifungal activity against Aspergillus flavus after 72 hr by broth microdilution method; assay type: functional
[17] = system: Salmonella typhi; assay: Antibacterial activity against Salmonella enterica subsp. enterica serovar Typhi ATCC 23564 at 0.78 to 50 ug/ml after 24 hr by broth microdilution method; assay type: functional, organism-based
[18] = system: Pseudomonas aeruginosa; assay: Antibacterial activity against Pseudomonas aeruginosa ATCC 15499 at 0.78 to 50 ug/ml after 24 hr by broth microdilution method; assay type: functional, organism-based

SMILES	IC50 [1]	MIC [2] [µg/mL]	MIC [3] [µg/mL]	inhibition zone (IZ) [4] [mm]	inhibition zone (IZ) [5] [mm]	inhibition zone (IZ) [6] [mm]	MIC [7] [µg/mL]	MIC [8] [µg/mL]	MIC [9] [µg/mL]	MIC [10] [µg/mL]	MIC [11] [µg/mL]	MIC [12] [µg/mL]	Activity [4]	Activity [6]	Activity [15]	MIC [16] [µg/mL]	Activity [5]	other results
CCOC(=O)C1=C(C)N=C2Sc3ccccc3N2C1c1ccc(OC)cc1 (configuration not stated)	> 100	6.25 (≈ 16.4 µM)	6.25 (≈ 16.4 µM)	18	20	16	6.25 (≈ 16.4 µM)	6.25 (≈ 16.4 µM)	6.25 (≈ 16.4 µM)	12.5 (≈ 32.9 µM)	6.25 (≈ 16.4 µM)	6.25 (≈ 16.4 µM)	–	–	–	–	–	–
CCOC(=O)C1=C(C)N=C2Sc3ccccc3N2C1c1ccccc1 (configuration not stated)	> 100	6.25 (≈ 17.8 µM)	–	–	10	–	–	12.5 (≈ 35.7 µM)	–	25 (≈ 71.3 µM)	25 (≈ 71.3 µM)	–	inactive	inactive	inactive	–	–	Activity [13]: inactive; Activity [14]: inactive
CCOC(=O)C1=C(C)N=C2Sc3ccccc3N2C1c1ccc([N+](=O)[O-])cc1 (configuration not stated)	> 100	6.25 (≈ 15.8 µM)	12.5 (≈ 31.6 µM)	–	15	17	25 (≈ 63.2 µM)	6.25 (≈ 15.8 µM)	12.5 (≈ 31.6 µM)	6.25 (≈ 15.8 µM)	12.5 (≈ 31.6 µM)	25 (≈ 63.2 µM)	inactive	–	–	–	–	–
CCOC(=O)C1=C(C)N=C2Sc3ccccc3N2C1c1c(Cl)cccc1Cl (configuration not stated)	> 100	6.25 (≈ 14.9 µM)	–	–	–	–	12.5 (≈ 29.8 µM)	6.25 (≈ 14.9 µM)	6.25 (≈ 14.9 µM)	25 (≈ 59.6 µM)	12.5 (≈ 29.8 µM)	12.5 (≈ 29.8 µM)	inactive	inactive	–	12.5 (≈ 29.8 µM)	inactive	–
CCOC(=O)C1=C(C)N=C2Sc3ccccc3N2C1c1ccc(O)cc1 (configuration not stated)	50	–	6.25 (≈ 17.1 µM)	–	12	15	12.5 (≈ 34.1 µM)	6.25 (≈ 17.1 µM)	6.25 (≈ 17.1 µM)	25 (≈ 68.2 µM)	12.5 (≈ 34.1 µM)	12.5 (≈ 34.1 µM)	inactive	–	–	–	–	–
OC(Cn1cncn1)(Cn1cncn1)c1ccc(F)cc1F [FLUCONAZOLE]	–	1.62 (≈ 5.29 µM)	1.62 (≈ 5.29 µM)	25	22	18	–	–	–	–	–	–	–	–	–	1.62 (≈ 5.29 µM)	–	–
CCOC(=O)C1=C(C)N=C2Sc3ccccc3N2C1c1ccc(N(C)C)cc1 (configuration not stated)	> 100	–	–	–	–	–	12.5 (≈ 31.8 µM)	6.25 (≈ 15.9 µM)	12.5 (≈ 31.8 µM)	12.5 (≈ 31.8 µM)	12.5 (≈ 31.8 µM)	–	inactive	inactive	inactive	–	inactive	–
CCOC(=O)C1=C(C)N=C2Sc3ccccc3N2C1c1ccccc1O (configuration not stated)	> 100	–	–	11	–	–	12.5 (≈ 34.1 µM)	6.25 (≈ 17.1 µM)	12.5 (≈ 34.1 µM)	–	25 (≈ 68.2 µM)	–	–	inactive	inactive	12.5 (≈ 34.1 µM)	inactive	Activity [17]: inactive
O=C(O)c1cn(C2CC2)c2cc(N3CCNCC3)c(F)cc2c1=O [CIPROFLOXACIN]	–	–	–	–	–	–	1.62 (≈ 4.89 µM)	1.62 (≈ 4.89 µM)	1.62 (≈ 4.89 µM)	3.25 (≈ 9.81 µM)	1.62 (≈ 4.89 µM)	3.25 (≈ 9.81 µM)	–	–	–	–	–	–
CCOC(=O)C1=C(C)N=C2Sc3ccccc3N2C1c1ccc(O)c(OC)c1 (configuration not stated)	50	–	6.25 (≈ 15.8 µM)	–	–	10	25 (≈ 63.1 µM)	12.5 (≈ 31.5 µM)	25 (≈ 63.1 µM)	–	–	25 (≈ 63.1 µM)	inactive	–	–	–	inactive	Activity [17]: inactive; Activity [18]: inactive
